Laboratory results taken from patent publication US10501440B2, “Heteroarylcarboxamide derivatives as plasma kallikrein inhibitors” (Boehringer Ingelheim International GmbH, priority 2017, dated 2019).
Where two headings read alike, the source gives them in different places.

Legend:
Assay type in all cases: biochemical
KLKB1 [1] = molecular target: T1, KLKB1 (Homo sapiens (Human), UniProt P03952); assay: Inhibition of KLKB1 using an endpoint assay (fluorogenic substrate H-Pro-Phe-Arg-AMC); conditions: endpoint assay, 1 h at room temperature, 0.10 μM H-Pro-Phe-Arg-AMC; read-out: IC50
T1 sequence (P03952 391-638 limits assumed): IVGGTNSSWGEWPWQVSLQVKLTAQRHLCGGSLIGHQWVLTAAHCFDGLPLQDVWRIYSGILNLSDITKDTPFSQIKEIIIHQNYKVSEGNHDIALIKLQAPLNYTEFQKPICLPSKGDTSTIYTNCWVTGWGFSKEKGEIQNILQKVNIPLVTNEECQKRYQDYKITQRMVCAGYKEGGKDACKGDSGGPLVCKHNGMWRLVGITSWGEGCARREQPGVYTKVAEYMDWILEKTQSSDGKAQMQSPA
T1 sequence (P03952 20-390 partner limits assumed): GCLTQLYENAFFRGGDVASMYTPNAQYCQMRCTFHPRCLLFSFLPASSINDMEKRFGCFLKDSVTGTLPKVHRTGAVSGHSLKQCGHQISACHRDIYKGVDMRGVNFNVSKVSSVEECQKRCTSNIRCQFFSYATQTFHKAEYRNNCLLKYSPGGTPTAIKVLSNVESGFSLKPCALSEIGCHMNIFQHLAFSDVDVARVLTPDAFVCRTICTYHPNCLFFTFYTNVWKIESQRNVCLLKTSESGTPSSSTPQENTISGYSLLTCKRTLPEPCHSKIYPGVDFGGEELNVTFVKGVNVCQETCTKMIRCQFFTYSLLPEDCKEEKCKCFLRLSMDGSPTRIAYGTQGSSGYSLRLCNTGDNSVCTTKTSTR
Procedure: (§1) The ability of compounds of formula (I) to inhibit plasma kallikrein (KLKB1), Factor XIIa (FXIIa), Factor XIa (FXIa), Factor Xa (FXa), Factor IIa (alpha-thrombin; FIIa), plasmin, trypsin, tissue kallikrein 1 (KLK1), Factor Vila (FVIIa), or FVIIa complexed with Tissue Factor, phospholipids and CaCl2 (FVIIa/TF/PL/CaCl2) was determined using the following biochemical assays in assay buffer (100 mM Tris, 150 mM NaCL, adjusted to a pH of 7.8 with HCl, and containing 0.1% (w/v) BSA and 0.05% (v/v) Tween20) in the presence of 1% (v/v) DMSO:
Evaluation of the Inhibition of KLKB1 Using an Endpoint Assay
Human KLKB1 (0.01 U/mL; Enzyme Research Laboratories) or rat KLKB1 (0.625 nM; produced in-house) was incubated for 1 h at room temperature with 0.10 μM fluorogenic substrate H-Pro-Phe-Arg-AMC (11295 from Bachem) and various concentrations of the test compound in assay buffer. Subsequently, PPACK 11 (Calbiochem) was added as a stop solution to achieve a final concentration of 1 μM and fluorescence was measured using an Envision Reader (PerkinElmer) with the wavelength excitation setting of 355 nm and the wavelength emission setting of 460 nm.
(§2) The number of the compound corresponds to the number of the Example in the experimental section.

KLKB1 [2] = molecular target: T1, KLKB1; assay: Inhibition of KLKB1 (Ki), kinetic assay; conditions: 24° C., 0.25 mM H-Pro-Phe-Arg-AMC; IC50 corrected for KM of substrate
Procedure: as §1
Evaluation of the Inhibition of KLKB1 (Ki)
Measurements were performed in a kinetic interval every 2nd minute for 16 min using a Spectramax M5 (Molecular Devices) with the following settings of the wavelength excitation of 350 nm and wavelength emission of 450 nm.
as §2
Calculation of pIC50 and Pki Values
The pIC50 values were then fitted using a four-parametric fitting procedure using GraphPad Prism (version 6; GraphPad Software, Inc.).
Where the IC50 is in molar and the KM value in mM.

KLKB1 [3] = molecular target: T1, KLKB1; assay: Inhibition of human KLKB1 in dextran sulfate activated human PPP; conditions: human platelet poor plasma (EDTA) activated with 12.5 μg/mL dextransulfate, 24° C.; read-out: IC50
Procedure: Evaluation of the Inhibition of Human KLKB1 in Dextran Sulfate Activated Human PPP
Platelet poor plasma (PPP) obtained from human wholeblood, anticoagulated with EDTA, was activated with 12.5 μg/mL dextransulfate for 7 min on ice. The activated PPP was incubated with various concentrations of the test compound in assay buffer. Afterwards the mixture was incubated at 24° C. with 0.25 mM fluorogenic substrate H-Pro-Phe-Arg-AMC (11295 from Bachem) and measurements were performed in a kinetic interval every 2nd minute for 16 min using a Spectramax M5 (Molecular Devices) with the following settings of the wavelength excitation of 350 nm and wavelength emission of 450 nm.
as §2

KLKB1 [4] = molecular target: T1, KLKB1; assay: Inhibition of KLKB1 in kaolin activated human PPP; conditions: for IC50: read-out: IC50
Procedure: Evaluation of the Inhibition of KLKB1 in Kaolin Activated Human PPP
Platelet poor plasma (PPP) obtained from human wholeblood, anticoagulated with Na-Citrat, was incubated with various concentrations of the test compound together with either 25, 75, 250, or 750 μg/mL kaolin in assay buffer for 20 min at 37° C. such that for each kaolin dose used a concentration response was obtained for the test compound.
as §2

[5] = human platelet poor plasma (Na-Citrat), 25, 75, 250 or 750 μg/mL kaolin, global fit
[6] = human platelet poor plasma (Na-Citrat), 25, 75, 250 or 750 μg/mL kaolin, global fit, read-out: IC90

## Cc1nc(N2CC3CC3C2)ccc1Cn1cc(C(=O)N[C@@H]2CCc3c2ccnc3N)c(C(C)C)n1 (stereo partly shown) [Example 6]
KLKB1 [1]
  IC50: 1 nM

## Cc1nc(N2CC3C(C2)C3(F)F)ccc1Cn1cc(C(=O)N[C@@H]2CCc3c2ccnc3N)nn1 (stereo partly shown) [Example 8]
KLKB1 [1]
  IC50: 5.5 nM

## Cc1cc2c(c(N)n1)CC[C@H]2NC(=O)c1cn(Cc2cnc(N3CC4C(C3)C4(F)F)nc2C)nn1 (stereo partly drawn) [Example 21, N-[(5R)-1-Amino-3-methyl-5H,6H,7H-cyclopenta[c]pyridin-5-yl]-1-[(2-{6,6-difluoro-3-azabicyclo[3.1.0]hexan-3-yl}-4-methylpyrimidin-5-yl)methyl]-1H-1,2,3-triazole-4-carboxamide]
KLKB1 [1]
  IC50: 1.4 nM

## Cc1nc(N2C[C@@H]3[C@H](C)[C@@H]3C2)ccc1Cn1cc(C(=O)N[C@@H]2CCc3c2ccnc3N)cn1 [Example 24, 1-[2-Methyl-6-((1S,5R,6R)-6-methyl-3-aza-bicyclo[3.1.0]hex-3-yl)-pyridin-3-ylmethyl]-1H-pyrazole-4-carboxylic acid ((R)-1-amino-6,7-dihydro-5H-[2]pyrindin-5-yl)-amide]
KLKB1 [1]
  IC50: 0.6 nM

## Cc1nc(N2CC3CC3C2)ccc1Cn1cc(C(=O)N[C@@H]2CCc3c2ccnc3N)nn1 (stereo partly shown) [Example 5]
KLKB1 [2]
  Ki: 0.4 nM
KLKB1 [3]
  IC50: 61.2 nM
KLKB1 [1]
  IC50: 0.8 nM

## Cc1nc(N2CC3CC3C2)ccc1Cn1cc(C(=O)N[C@@H]2CCc3c2ccnc3N)c(C(F)(F)F)n1 (stereo partly shown) [Example 4]
KLKB1 [2]
  Ki: 0.4 nM
KLKB1 [4]; [5]
  IC50: 18 nM
KLKB1 [4]; [6]
  IC90: 446 nM
KLKB1 [1]
  IC50: 0.8 nM

## Cc1nc(N2C[C@@H]3[C@H](C#N)[C@@H]3C2)ccc1Cn1cc(C(=O)N[C@@H]2CCc3c2ccnc3N)cn1 [Example 13, N-[(5R)-1-Amino-5H,6H,7H-cyclopenta[c]pyridin-5-yl]-1-({6-[(1R,5S,6R)-6-cyano-3-azabicyclo[3.1.0]hexan-3-yl]-2-methylpyridin-3-yl}methyl)-1H-pyrazole-4-carboxamide]
KLKB1 [2]
  Ki: 0.3 nM
KLKB1 [3]
  IC50: 32.3 nM
KLKB1 [1]
  IC50: 0.5 nM

## Cc1nc(N2CC3CC3C2)ccc1Cn1cc(C(=O)N[C@@H]2CCc3c2ccnc3N)c(C(F)F)n1 (stereo partly drawn) [Example 19, N-[(5R)-1-Amino-5H,6H,7H-cyclopenta[c]pyridin-5-yl]-1-[(6-{3-azabicyclo[3.1.0]hexan-3-yl}-2-methylpyridin-3-yl)methyl]-3-(difluoromethyl)-1H-pyrazole-4-carboxamide]
KLKB1 [1]
  IC50: 1 nM

## Cc1nc(N2CC3CC3C2)ccc1Cn1cc(C(=O)N[C@@H]2CCc3c2ccnc3N)c(C)n1 (stereo partly shown) [Example 3]
KLKB1 [2]
  Ki: 0.3 nM
KLKB1 [4]; [5]
  IC50: 20.1 nM
KLKB1 [4]; [6]
  IC90: 238 nM
KLKB1 [1]
  IC50: 0.7 nM

## Cc1cc2c(c(N)n1)CC[C@H]2NC(=O)c1cnn(Cc2ccc(N3CC4CC4C3)nc2C)c1 (stereo partly shown) [Example 2]
KLKB1 [2]
  Ki: 0.3 nM
KLKB1 [4]; [5]
  IC50: 16.6 nM
KLKB1 [4]; [6]
  IC90: 134 nM
KLKB1 [1]
  IC50: 0.3 nM

## COc1nn(Cc2ccc(N3CC4CC4C3)nc2C)cc1C(=O)N[C@@H]1CCc2c1ccnc2N (stereo partly drawn) [Example 22, N-[(5R)-1-Amino-5H,6H,7H-cyclopenta[c]pyridin-5-yl]-1-[(6-{3-azabicyclo[3.1.0]hexan-3-yl}-2-methylpyridin-3-yl)methyl]-3-methoxy-1H-pyrazole-4-carboxamide]
KLKB1 [1]
  IC50: 1.1 nM

## Cc1nc(N2CC3C(C2)C3(F)F)ncc1Cn1cc(C(=O)N[C@@H]2CCc3c2ccnc3N)nn1 (stereo partly drawn) [Example 20, N-[(5R)-1-Amino-5H,6H,7H-cyclopenta[c]pyridin-5-yl]-1-[(2-{6,6-difluoro-3-azabicyclo[3.1.0]hexan-3-yl}-4-methylpyrimidin-5-yl)methyl]-1H-1,2,3-triazole-4-carboxamide]
KLKB1 [1]
  IC50: 3.9 nM

## Cc1nc(N2CC3C(C2)C3(F)F)ccc1Cn1cc(C(=O)N[C@@H]2CCc3c2ccnc3N)c(C(F)(F)F)n1 (stereo partly shown) [Example 7]
KLKB1 [2]
  Ki: 1.9 nM
KLKB1 [4]; [5]
  IC50: 17.9 nM
KLKB1 [4]; [6]
  IC90: 199 nM
KLKB1 [1]
  IC50: 1.1 nM

## Cc1nc(N2CC3CC3C2)ncc1Cn1cc(C(=O)N[C@@H]2CCc3c2ccnc3N)nn1 (stereo partly drawn) [Example 16, N-[(5R)-1-Amino-5H,6H,7H-cyclopenta[c]pyridin-5-yl]-1-[(2-{3-azabicyclo[3.1.0]hexan-3-yl}-4-methylpyrimidin-5-yl)methyl]-1H-1,2,3-triazole-4-carboxamide]
KLKB1 [2]
  Ki: 2.2 nM
KLKB1 [1]
  IC50: 5.3 nM

## Cc1nc(N2C[C@@H]3[C@H](CO)[C@@H]3C2)ccc1Cn1cc(C(=O)N[C@@H]2CCc3c2ccnc3N)cn1 [Example 12]
KLKB1 [2]
  Ki: 0.6 nM
KLKB1 [3]
  IC50: 46.7 nM
KLKB1 [1]
  IC50: 1.9 nM

## Cc1cc2c(c(N)n1)CC[C@H]2NC(=O)c1cn(Cc2ccc(N3CC4CC4C3)nc2C)nc1C (stereo partly drawn) [Example 15, N-[(5R)-1-Amino-3-methyl-5H,6H,7H-cyclopenta[c]pyridin-5-yl]-1-[(6-{3-azabicyclo[3.1.0]hexan-3-yl}-2-methylpyridin-3-yl)methyl]-3-methyl-1H-pyrazole-4-carboxamide]
KLKB1 [2]
  Ki: 0.4 nM
KLKB1 [1]
  IC50: 0.5 nM

## Cc1nc(N2CC3(CC3)C2)ccc1Cn1cc(C(=O)N[C@@H]2CCc3c2ccnc3N)cn1 [Example 26, 1-[6-(5-Aza-spiro[2.3]hex-5-yl)-2-methyl-pyridin-3-ylmethyl]-1H-pyrazole-4-carboxylic acid ((R)-1-amino-6,7-dihydro-5H-[2]pyrindin-5-yl)-amide]
KLKB1 [1]
  IC50: 1.2 nM

## Cc1cc2c(c(N)n1)CC[C@H]2NC(=O)c1cnn(Cc2cnc(N3CC4CC4C3)nc2C)c1 (stereo partly drawn) [Example 17, N-[(5R)-1-Amino-3-methyl-5H,6H,7H-cyclopenta[c]pyridin-5-yl]-1-[(2-{3-azabicyclo[3.1.0]hexan-3-yl}-4-methylpyrimidin-5-yl)methyl]-1H-pyrazole-4-carboxamide]
KLKB1 [2]
  Ki: 0.5 nM
KLKB1 [4]
  IC90: 511 nM
KLKB1 [4]; [5]
  IC50: 52.2 nM
KLKB1 [1]
  IC50: 1 nM

## Cc1nc(N2CC3C(C2)C3(C)C)ccc1Cn1cc(C(=O)N[C@@H]2CCc3c2ccnc3N)cn1 (stereo partly drawn) [Example 23, N-[(5R)-1-Amino-5H,6H,7H-cyclopenta[c]pyridin-5-yl]-1-[(6-{6,6-dimethyl-3-azabicyclo[3.1.0]hexan-3-yl}-2-methylpyridin-3-yl)methyl]-1H-pyrazole-4-carboxamide]
KLKB1 [1]
  IC50: 9.9 nM

## Cc1cc2c(c(N)n1)CC[C@H]2NC(=O)c1cn(Cc2cnc(N3CC4CC4C3)nc2C)nn1 (stereo partly drawn) [Example 18, N-[(5R)-1-Amino-3-methyl-5H,6H,7H-cyclopenta[c]pyridin-5-yl]-1-[(2-{3-azabicyclo[3.1.0]hexan-3-yl}-4-methylpyrimidin-5-yl)methyl]-1H-1,2,3-triazole-4-carboxamide]
KLKB1 [2]
  Ki: 0.5 nM
KLKB1 [1]
  IC50: 1.2 nM

## Cc1cc2c(c(N)n1)CC[C@H]2NC(=O)c1cnn(Cc2ccc(N3CC4C(C3)C4(F)F)nc2C)c1 (stereo partly drawn) [Example 10, N-[(5R)-1-Amino-3-methyl-5H,6H,7H-cyclopenta[c]pyridin-5-yl]-1-[(6-{6,6-difluoro-3-azabicyclo[3.1.0]hexan-3-yl}-2-methylpyridin-3-yl)methyl]-1H-pyrazole-4-carboxamide]
KLKB1 [2]
  Ki: 0.4 nM
KLKB1 [4]
  IC90: 96.2 nM
KLKB1 [4]; [5]
  IC50: 16.2 nM
KLKB1 [1]
  IC50: 0.4 nM

## Cc1nc(N2CC3(CCC3)C2)ccc1Cn1cc(C(=O)N[C@@H]2CCc3c2ccnc3N)cn1 [Example 25, 1-[6-(2-Aza-spiro[3.3]hept-2-yl)-2-methyl-pyridin-3-ylmethyl]-1H-pyrazole-4-carboxylic acid ((R)-1-amino-6,7-dihydro-5H-[2]pyrindin-5-yl)-amide]
KLKB1 [1]
  IC50: 2.1 nM

## Cc1nc(N2CCC3(CC3)C2)ccc1Cn1cc(C(=O)N[C@@H]2CCc3c2ccnc3N)cn1 [Example 14]
KLKB1 [2]
  Ki: 1.1 nM
KLKB1 [3]
  IC50: 80.3 nM
KLKB1 [1]
  IC50: 2 nM
